Columns and labels:
Assay type in all cases: in vivo
[1] = tested on: ragweed (common ragweed, Ambrosia elatior); test: Test A postemergence; settings: Ambrosia artemisiifolia, post-emergence, 240 h, Postemergence
In short: (§1)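 Each rating is a visual injury score from 0 to 100 given about 10 d after treatment, judged against untreated controls kept alongside in the greenhouse. In loam soil–sand blend, seeds got a preemergence directed soil spray, while postemergence plants were 2 to 10 cm tall at spraying.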

corn (Zea mays) = test: Test A postemergence; settings: Zea mays, post-emergence, 240 h, Postemergence
In short: as §1

[2] = tested on: pigweed (Amaranthus retroflexus); test: Test A postemergence; settings: Amaranthus retroflexus, post-emergence, 240 h, Postemergence
In short: as §1

[3] = tested on: Galium (catchweed bedstraw, Galium aparine); test: Test A postemergence; settings: Galium, post-emergence, 240 h, Postemergence
In short: as §1

Kochia (Kochia scoparia) [4] = test: Test A postemergence; settings: Bassia scoparia, post-emergence, 240 h, Postemergence
In short: as §1

[5] = tested on: blackgrass (Alopecurus myosuroides); test: Test A postemergence; settings: Alopecurus myosuroides, post-emergence, 240 h, Postemergence
In short: as §1

[6] = tested on: giant foxtail (Setaria faberii); test: Test A postemergence; settings: Setaria faberi, post-emergence, 240 h, Postemergence
In short: as §1

[7] = tested on: wheat (Triticum aestivum); test: Test A postemergence; settings: Triticum aestivum, post-emergence, 240 h, Postemergence
In short: as §1

[8] = tested on: ryegrass, Italian (Italian ryegrass, Lolium multiflorum); test: Test A postemergence; settings: Lolium multiflorum, post-emergence, 240 h, Postemergence
In short: as §1

[9] = tested on: barnyardgrass (Echinochloa crus-galli); test: Test A postemergence; settings: Echinochloa crus-galli, post-emergence, 240 h, Postemergence
In short: as §1

[10] = tested on: ragweed (common ragweed, Ambrosia elatior); test: Test A preemergence; settings: Ambrosia artemisiifolia, pre-emergence, 240 h, Preemergence
In short: as §1

[11] = tested on: pigweed (Amaranthus retroflexus); test: Test A preemergence; settings: Amaranthus retroflexus, pre-emergence, 240 h, Preemergence
Kochia (Kochia scoparia) [12] = test: Test A preemergence; settings: Bassia scoparia, pre-emergence, 240 h, Preemergence
In short: as §1

[13] = tested on: giant foxtail (Setaria faberii); test: Test A preemergence; settings: Setaria faberi, pre-emergence, 240 h, Preemergence
In short: as §1

[14] = tested on: ryegrass, Italian (Italian ryegrass, Lolium multiflorum); test: Test A preemergence; settings: Lolium multiflorum, pre-emergence, 240 h, Preemergence
In short: as §1

[15] = tested on: barnyardgrass (Echinochloa crus-galli); test: Test A preemergence; settings: Echinochloa crus-galli, pre-emergence, 240 h, Preemergence
In short: as §1

rice (Oryra sativa) = test: Test B flooded paddy test; settings: Oryza sativa, 360 h, Flood, 250 g ai/ha; visually evaluated after 13 to 15 d; read-out: Plant response rating, Rice (0 to 100 scale where 0 is no effect and 100 is complete control)
In short: (§2)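 Percent control, visually estimated after 13–15 d in the greenhouse on a 0–100 basis, compares treated pots with untreated ones; compound was put into paddy water 3 cm above the soil when plants had two leaves.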

[16] = tested on: sedge, umbrella (small-flower umbrella sedge, Cyperus difformis); test: Test B flooded paddy test; settings: Cyperus difformis, 360 h, Flood, 250 g ai/ha; visually evaluated after 13 to 15 d; read-out: Plant response rating, Sedge, Umbrella (0 to 100 scale where 0 is no effect and 100 is complete control)
In short: as §2

[17] = tested on: ducksalad (Heteranthera limosa); test: Test B flooded paddy test; settings: Heteranthera limosa, 360 h, Flood, 250 g ai/ha; visually evaluated after 13 to 15 d; read-out: Plant response rating, Ducksalad (0 to 100 scale where 0 is no effect and 100 is complete control)
In short: as §2

[18] = tested on: barnyardgrass (Echinochloa crus-galli); test: Test B flooded paddy test; settings: Echinochloa crus-galli, 360 h, Flood, 250 g ai/ha; visually evaluated after 13 to 15 d; read-out: Plant response rating, Barnyardgrass (0 to 100 scale where 0 is no effect and 100 is complete control)
In short: as §2

## Cc1ccc([C@H]2CN(C)C(=O)[C@@H]2C(=O)Nc2ccc(F)nc2F)cc1 [Compound 1402]
[1]; 31 g ai/ha, 0 is no effect, 100 is complete control, read-out: Ragweed plant response rating (0 to 100 scale)
  pest or weed control at 31 g/ha: 0%
[1]; 125 g ai/ha, visual injury after approx. 10 d, 0 to 100 scale, 0 no effect, 100 complete control, read-out: Plant response rating, Ragweed
  pest or weed control at 125 g/ha: 20%
Corn (Zea mays); 31 g ai/ha, 0 is no effect, 100 is complete control, read-out: Corn plant response rating (0 to 100 scale)
  plant injury at 31 g/ha: 0%
Corn (Zea mays); 125 g ai/ha, visual injury after approx. 10 d, 0 to 100 scale, 0 no effect, 100 complete control
  Corn plant response rating (crop injury, 0 = no effect, 100 = complete kill) at 125 g/ha: 0%
[2]; 31 g ai/ha, 0 is no effect, 100 is complete control, read-out: Pigweed plant response rating (0 to 100 scale)
  pest or weed control at 31 g/ha: 0%
[2]; 125 g ai/ha, visual injury after approx. 10 d, 0 to 100 scale, 0 no effect, 100 complete control, read-out: Plant response rating, Pigweed
  pest or weed control at 125 g/ha: 0%
[3]; 31 g ai/ha, 0 is no effect, 100 is complete control, read-out: Galium plant response rating (0 to 100 scale)
  pest or weed control at 31 g/ha: 60%
[3]; 125 g ai/ha, visual injury after approx. 10 d, 0 to 100 scale, 0 no effect, 100 complete control, read-out: Plant response rating, Galium
  pest or weed control at 125 g/ha: 70%
Kochia (Kochia scoparia) [4]; 31 g ai/ha, 0 is no effect, 100 is complete control, read-out: Kochia plant response rating (0 to 100 scale)
  pest or weed control at 31 g/ha: 30%
Kochia (Kochia scoparia) [4]; 125 g ai/ha, visual injury after approx. 10 d, 0 to 100 scale, 0 no effect, 100 complete control, read-out: Plant response rating, Kochia
  pest or weed control at 125 g/ha: 70%
[5]; 31 g ai/ha, 0 is no effect, 100 is complete control, read-out: Blackgrass plant response rating (0 to 100 scale)
  pest or weed control at 31 g/ha: 0%
[5]; 125 g ai/ha, visual injury after approx. 10 d, 0 to 100 scale, 0 no effect, 100 complete control, read-out: Plant response rating, Blackgrass
  pest or weed control at 125 g/ha: 50%
[6]; 31 g ai/ha, 0 is no effect, 100 is complete control, read-out: Foxtail, Giant plant response rating (0 to 100 scale)
  pest or weed control at 31 g/ha: 50%
[6]; 125 g ai/ha, visual injury after approx. 10 d, 0 to 100 scale, 0 no effect, 100 complete control, read-out: Plant response rating, Foxtail, Giant
  pest or weed control at 125 g/ha: 90%
[7]; 31 g ai/ha, 0 is no effect, 100 is complete control, read-out: Wheat plant response rating (0 to 100 scale)
  plant injury at 31 g/ha: 20%
[7]; 125 g ai/ha, visual injury after approx. 10 d, 0 to 100 scale, 0 no effect, 100 complete control, read-out: Plant response rating, Wheat
  plant injury at 125 g/ha: 40%
[8]; 31 g ai/ha, 0 is no effect, 100 is complete control, read-out: Ryegrass, Italian plant response rating (0 to 100 scale)
  pest or weed control at 31 g/ha: 0%
[8]; 125 g ai/ha, visual injury after approx. 10 d, 0 to 100 scale, 0 no effect, 100 complete control, read-out: Plant response rating, Ryegrass, Italian
  pest or weed control at 125 g/ha: 0%
[9]; 31 g ai/ha, 0 is no effect, 100 is complete control, read-out: Barnyardgrass plant response rating (0 to 100 scale)
  pest or weed control at 31 g/ha: 80%
[9]; 125 g ai/ha, visual injury after approx. 10 d, 0 to 100 scale, 0 no effect, 100 complete control, read-out: Plant response rating, Barnyardgrass
  pest or weed control at 125 g/ha: 90%
[10]; 31 g ai/ha, 0 to 100 scale where 0 is no effect and 100 is complete control, read-out: Ragweed plant response rating
  pest or weed control at 31 g/ha: 30%
[10]; 125 g ai/ha, 0 to 100 scale (0 no effect, 100 complete control), read-out: Plant response rating, Ragweed
  pest or weed control at 125 g/ha: 0%
[11]; 31 g ai/ha, 0 to 100 scale where 0 is no effect and 100 is complete control, read-out: Pigweed plant response rating
  pest or weed control at 31 g/ha: 20%
[11]; 125 g ai/ha, 0 to 100 scale (0 no effect, 100 complete control), read-out: Plant response rating, Pigweed
  pest or weed control at 125 g/ha: 90%
Kochia (Kochia scoparia) [12]; 31 g ai/ha, 0 to 100 scale where 0 is no effect and 100 is complete control, read-out: Kochia plant response rating
  pest or weed control at 31 g/ha: 20%
Kochia (Kochia scoparia) [12]; 125 g ai/ha, 0 to 100 scale (0 no effect, 100 complete control), read-out: Plant response rating, Kochia
  pest or weed control at 125 g/ha: 80%
[13]; 31 g ai/ha, 0 to 100 scale where 0 is no effect and 100 is complete control, read-out: Foxtail, Giant plant response rating
  pest or weed control at 31 g/ha: 100%
[13]; 125 g ai/ha, 0 to 100 scale (0 no effect, 100 complete control), read-out: Plant response rating, Foxtail, Giant
  pest or weed control at 125 g/ha: 100%
[14]; 31 g ai/ha, 0 to 100 scale where 0 is no effect and 100 is complete control, read-out: Ryegrass, Italian plant response rating
  pest or weed control at 31 g/ha: 0%
[14]; 125 g ai/ha, 0 to 100 scale (0 no effect, 100 complete control), read-out: Plant response rating, Ryegrass, Italian
  pest or weed control at 125 g/ha: 0%
[15]; 31 g ai/ha, 0 to 100 scale where 0 is no effect and 100 is complete control, read-out: Barnyardgrass plant response rating
  pest or weed control at 31 g/ha: 100%
[15]; 125 g ai/ha, 0 to 100 scale (0 no effect, 100 complete control), read-out: Plant response rating, Barnyardgrass
  pest or weed control at 125 g/ha: 90%
Rice (Oryra sativa)
  pest or weed control at 250 g/ha: 0%
[16]
  pest or weed control at 250 g/ha: 0%
[17]
  pest or weed control at 250 g/ha: 95%
[18]
  pest or weed control at 250 g/ha: 90%
